From patent US20180148514A1, “MULTIVALENT MEDITOPES, MEDITOPE-BINDING ANTIBODIES AND USES THEREOF” (City of Hope, priority 2014, published 2018)

Assays:
MDA-MB-468 cells = experiment: FACS binding of meditopes to MDA-MB-468 cells pre-treated with cetuximab or M425; format: cell-based; settings: with or without cetuximab or M425 pre-treatment
pertuzumab I83E IgG = experiment: SPR, meditope binding to immobilized pertuzumab I83E IgG; settings: two fold dilutions from approximately 10 um to 156 nM
Method: The binding of a meditope to a meditope-enabled antibody containing the I83E modification was next examined in an in vitro binding study using surface plasmon resonance (SPR) and a meditope enabled antibody pertuzumab with the I83E modification. […] Concentrations were two fold dilutions from approximately 10 um to 156 nM. […] Further optimization of the experiment will be required due to the long off rate observed.

CLL patients = settings: cited from earlier work
[1] = Phase I, 46 heavily pretreated CLL patients, single agent

Substance	binding to cells (FACS) (MDA-MB-468 cells)	Kd fit (pertuzumab I83E IgG)	objective responses (CLL patients; [1])	patients with decreased peripheral blood lymphocyte counts (CLL patients; [1])	patients with reduced enlarged lymph node size (CLL patients; [1])	MTD (maximum tolerated dose) (CLL patients; human, in vivo)	immunosuppression (CLL patients; human, in vivo)	adverse events (AEs) (CLL patients; majority of AEs)
C-QFDLSTRRLK-C [cQFD]	bound to EGFR positive MD-MBA-468 cells only in the presence of cetuximab	no Kd could be fit to the data						
lumiliximab: primatized anti-CD23 mAb with cynomolgus macaque variable regions and human constant regions (IgG1-κ)			no objective Complete Responses (CRs) or Partial Responses (PRs) were observed	91%	52%	not reached	not immunosuppressive	limited to grade 1/2
